One may read the IC50 as the concentration that gives 50% inhibition. A high value points to weaker potency.

The values that follow come from ChEMBL document CHEMBL1165944, “Synthesis and biological evaluation of a new series of berberine derivatives as dual inhibitors of acetylcholinesterase and butyrylcholinesterase” (Bioorg Med Chem, 2010).

The first test deals with Acetylcholinesterase (Electrophorus electricus, UniProt O42275). Kind of test: Inhibition of electric eel AChE by Ellman's assay.
Acetylcholinesterase, sequence (O42275 whole entry): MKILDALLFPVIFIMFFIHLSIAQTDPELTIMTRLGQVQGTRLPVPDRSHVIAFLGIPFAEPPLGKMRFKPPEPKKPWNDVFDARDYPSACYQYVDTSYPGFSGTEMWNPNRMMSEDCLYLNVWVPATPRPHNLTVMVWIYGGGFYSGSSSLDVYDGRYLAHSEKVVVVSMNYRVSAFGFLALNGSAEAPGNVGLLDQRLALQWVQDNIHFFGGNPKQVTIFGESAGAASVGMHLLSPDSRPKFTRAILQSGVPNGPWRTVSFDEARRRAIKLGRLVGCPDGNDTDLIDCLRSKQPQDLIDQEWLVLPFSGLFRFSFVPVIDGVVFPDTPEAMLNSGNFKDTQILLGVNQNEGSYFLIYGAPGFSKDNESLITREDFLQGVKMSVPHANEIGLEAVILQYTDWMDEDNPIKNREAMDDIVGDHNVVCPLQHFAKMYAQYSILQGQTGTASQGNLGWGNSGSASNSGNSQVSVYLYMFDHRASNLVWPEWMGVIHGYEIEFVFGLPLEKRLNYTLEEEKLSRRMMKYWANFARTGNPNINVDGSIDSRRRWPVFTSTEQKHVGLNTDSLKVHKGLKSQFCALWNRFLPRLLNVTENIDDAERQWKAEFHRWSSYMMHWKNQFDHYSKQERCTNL
As to `COc1ccc2cc3[n+](cc2c1OCCCOc1c(OC)ccc2cc4[n+](cc12)CCc1cc2c(cc1-4)OCO2)CCc1cc2c(cc1-3)OCO2`, the IC50 stood at 226 nM.

Consider `COc1ccc2cc3[n+](cc2c1OCCOc1c(OC)ccc2cc4[n+](cc12)CCc1cc2c(cc1-4)OCO2)CCc1cc2c(cc1-3)OCO2`, for which the midpoint of inhibition, the IC50, lay at 320 nM. In the case of `COc1ccc2cc3[n+](cc2c1OCCCCOc1ccc(Cl)cc1)CCc1cc2c(cc1-3)OCO2`, the IC50 worked out at 1500 nM.

In turn, `COc1ccc2cc3[n+](cc2c1OCCCOc1ccc(Br)cc1)CCc1cc2c(cc1-3)OCO2` yielded an IC50 of 265 nM. Regarding `COc1ccc2cc3[n+](cc2c1OCCCCOc1ccccn1)CCc1cc2c(cc1-3)OCO2`, inhibition was half-maximal at 340 nM (IC50). `COc1ccc2cc3[n+](cc2c1OCCCN(C)c1ccccc1)CCc1cc2c(cc1-3)OCO2` gave a half-inhibitory concentration (IC50) of 156 nM. Compared with the last compound, the IC50 is about 2.2-fold lower. The same measure, in the same setting: the value for `COc1ccc2cc3[n+](cc2c1OCCCOc1ccc2ccccc2c1)CCc1cc2c(cc1-3)OCO2` was 359 nM; that for `COc1ccc2cc3[n+](cc2c1OCCCSc1ccc2ccccc2c1)CCc1cc2c(cc1-3)OCO2` was 500 nM. With `COc1ccc2cc3[n+](cc2c1OCCCCOc1ccc(Br)cc1)CCc1cc2c(cc1-3)OCO2`, the IC50 came to 743 nM. Consider `COc1ccc2cc3[n+](cc2c1OCCCCSc1ccc2ccccc2c1)CCc1cc2c(cc1-3)OCO2`, for which half-maximal inhibition (IC50) was put at 1350 nM. `COc1ccc2cc3[n+](cc2c1OCCCOc1ccc([N+](=O)[O-])cc1)CCc1cc2c(cc1-3)OCO2` had an IC50 of 400 nM. On to `COc1ccc2cc3[n+](cc2c1OCCC(=O)Nc1ccccc1)CCc1cc2c(cc1-3)OCO2`, for which the IC50 was determined as 535 nM. Consider `COc1ccc2cc3[n+](cc2c1OCCC(=O)Nc1ccc(C)cc1)CCc1cc2c(cc1-3)OCO2`, for which half-maximal inhibition (IC50) was put at 1460 nM. Compound `COc1ccc2cc3[n+](cc2c1OCCC(=O)Nc1ccc([N+](=O)[O-])cc1)CCc1cc2c(cc1-3)OCO2` came in with an IC50 of 6500 nM. This IC50 lies about 4.5-fold higher than the previous one. For `COc1ccc2cc3[n+](cc2c1OCCCOc1ccc(Cl)cc1)CCc1cc2c(cc1-3)OCO2`, the IC50 came out at 715 nM.

Consider `COc1ccc2cc3[n+](cc2c1OCCCNc1ccccc1)CCc1cc2c(cc1-3)OCO2`, for which half-maximal inhibition (IC50) required 138 nM. For the compound `COc1ccc2cc3[n+](cc2c1OCC[n+]1ccccc1)CCc1cc2c(cc1-3)OCO2`, inhibition was half-maximal at 196 nM (IC50). This IC50 and that of the compound before are within 1.5-fold of each other. `COc1ccc2cc3[n+](cc2c1OCCC[n+]1ccccc1)CCc1cc2c(cc1-3)OCO2` gave an IC50 of 359 nM.

`COc1ccc2cc3[n+](cc2c1OCCCCOc1ccc2ccccc2c1)CCc1cc2c(cc1-3)OCO2` yielded an IC50 of 1900 nM. For the compound `COc1ccc2cc3[n+](cc2c1OCCC(=O)Nc1ccc(Cl)cc1)CCc1cc2c(cc1-3)OCO2`, the IC50 worked out at 3860 nM. In the case of `COc1ccc2cc3[n+](cc2c1OCC[n+]1cccc(C)c1)CCc1cc2c(cc1-3)OCO2`, the half-maximal inhibitory concentration (IC50) came to 48 nM. Still for that read-out and setting: the figure for `COc1ccc2cc3[n+](cc2c1OCCC[n+]1cccc(C)c1)CCc1cc2c(cc1-3)OCO2` is 152 nM; for `COc1ccc(NC(=O)CCOc2c(OC)ccc3cc4[n+](cc23)CCc2cc3c(cc2-4)OCO3)cc1` it is 2800 nM. Still for that read-out and setting: the figure for `COc1ccc2cc3[n+](cc2c1OCCCOc1ccc(C)cc1)CCc1cc2c(cc1-3)OCO2` is 878 nM; for `COc1ccc(OCCCOc2c(OC)ccc3cc4[n+](cc23)CCc2cc3c(cc2-4)OCO3)cc1` it is 1000 nM; for `COc1ccc2cc3[n+](cc2c1OCCCCOc1c(OC)ccc2cc4[n+](cc12)CCc1cc2c(cc1-4)OCO2)CCc1cc2c(cc1-3)OCO2` it is 176 nM. The same measure, in the same setting: the figure for `COc1ccc(OCCCCOc2c(OC)ccc3cc4[n+](cc23)CCc2cc3c(cc2-4)OCO3)cc1` is 748 nM; for `COc1ccc2cc3[n+](cc2c1OCCCCOc1ccc([N+](=O)[O-])cc1)CCc1cc2c(cc1-3)OCO2` it is 490 nM.

The target in a further test is Cholinesterase (Equus caballus, UniProt P81908). The test is described as follows: Inhibition of equine serum BuChE by Ellman's method. (In general: Ellman's reagent forms a yellow product with free thiols.)
Cholinesterase, sequence (P81908 whole entry): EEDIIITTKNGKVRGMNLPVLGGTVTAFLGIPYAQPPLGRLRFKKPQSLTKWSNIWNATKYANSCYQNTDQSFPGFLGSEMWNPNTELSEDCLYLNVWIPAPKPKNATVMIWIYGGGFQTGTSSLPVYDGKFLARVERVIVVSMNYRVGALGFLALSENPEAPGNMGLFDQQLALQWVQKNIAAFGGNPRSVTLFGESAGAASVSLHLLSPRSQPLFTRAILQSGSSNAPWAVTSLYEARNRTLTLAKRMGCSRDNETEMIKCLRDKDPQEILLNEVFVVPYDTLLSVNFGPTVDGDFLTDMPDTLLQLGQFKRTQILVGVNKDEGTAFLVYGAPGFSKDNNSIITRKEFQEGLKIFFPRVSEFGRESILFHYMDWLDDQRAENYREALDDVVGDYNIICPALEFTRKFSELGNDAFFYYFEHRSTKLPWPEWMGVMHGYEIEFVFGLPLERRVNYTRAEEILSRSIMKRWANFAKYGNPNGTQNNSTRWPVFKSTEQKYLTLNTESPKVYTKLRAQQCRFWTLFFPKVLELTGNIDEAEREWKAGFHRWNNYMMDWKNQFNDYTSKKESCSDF
For `COc1ccc2cc3[n+](cc2c1OCCC(=O)Nc1ccc([N+](=O)[O-])cc1)CCc1cc2c(cc1-3)OCO2`, the IC50 is 5530 nM.
